Measurements from ChEMBL document CHEMBL1201862, “PubChem BioAssay data set” (2004).
The source made the active and inactive calls.

Assays:
Galanin receptor type 3 = molecular target: T1, Galanin receptor type 3 (Homo sapiens, UniProt O60755); assay: Fluorescence-based cell-based primary high throughput dose response assay to identify antagonists of the Galanin Receptor 3 (GalR3).; assay type: functional
T1 sequence (O60755 whole entry): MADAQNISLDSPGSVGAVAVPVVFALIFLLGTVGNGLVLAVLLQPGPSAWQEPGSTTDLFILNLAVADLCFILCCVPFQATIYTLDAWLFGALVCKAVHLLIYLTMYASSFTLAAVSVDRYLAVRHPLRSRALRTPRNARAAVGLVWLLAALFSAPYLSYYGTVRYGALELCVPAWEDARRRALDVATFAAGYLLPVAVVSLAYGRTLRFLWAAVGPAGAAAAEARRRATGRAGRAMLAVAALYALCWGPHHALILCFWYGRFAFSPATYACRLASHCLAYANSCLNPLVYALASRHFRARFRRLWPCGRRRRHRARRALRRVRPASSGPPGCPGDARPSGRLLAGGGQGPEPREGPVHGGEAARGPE

cells = assay type: functional, cell-based; settings: HEK-CNG
[1] = molecular target: T2, Corticotropin-releasing factor receptor 2/Corticotropin-releasing factor-binding protein (Homo sapiens, UniProt P24387+Q13324); assay: activators of CRF receptor 2 with binding protein – uHTS hits, confirmation (AID 602473); assay type: functional; settings: read-out: EC50_Mean
T2 sequence (Q13324 whole entry): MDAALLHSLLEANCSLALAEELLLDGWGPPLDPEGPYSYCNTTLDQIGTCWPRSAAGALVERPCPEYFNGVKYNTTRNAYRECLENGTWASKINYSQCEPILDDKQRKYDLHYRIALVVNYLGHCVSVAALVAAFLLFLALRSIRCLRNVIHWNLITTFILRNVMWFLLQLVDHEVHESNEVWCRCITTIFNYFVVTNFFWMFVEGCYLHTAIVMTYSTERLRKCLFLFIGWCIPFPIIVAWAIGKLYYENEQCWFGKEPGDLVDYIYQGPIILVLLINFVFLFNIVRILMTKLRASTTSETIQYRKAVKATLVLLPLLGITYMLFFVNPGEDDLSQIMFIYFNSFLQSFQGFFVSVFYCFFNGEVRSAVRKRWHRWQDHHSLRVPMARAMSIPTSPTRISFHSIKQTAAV
T2 sequence (P24387 whole entry): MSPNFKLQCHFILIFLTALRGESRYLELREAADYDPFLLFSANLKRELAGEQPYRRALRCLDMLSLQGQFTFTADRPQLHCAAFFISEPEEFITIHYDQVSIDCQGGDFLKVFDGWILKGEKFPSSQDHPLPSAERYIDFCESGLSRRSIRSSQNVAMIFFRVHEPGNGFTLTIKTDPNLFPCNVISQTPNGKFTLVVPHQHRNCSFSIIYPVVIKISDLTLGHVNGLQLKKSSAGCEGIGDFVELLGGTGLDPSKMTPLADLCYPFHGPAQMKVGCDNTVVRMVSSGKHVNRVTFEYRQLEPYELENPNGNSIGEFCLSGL

[2] = CRF-BP/CRF-R2 complex antagonists, dose response, cell-based, uHTS hits, 384-well (AID 651639); assay type: functional, Homo sapiens; settings: read-out: IC50_Mean
[3] = molecular target: T2, Corticotropin-releasing factor receptor 2/Corticotropin-releasing factor-binding protein; assay: Dose Response confirmation of uHTS hits for small molecule antagonists of the CRF-binding protein and CRF-R2 receptor complex.; assay type: functional; settings: read-out: IC50_Mean
[4] = HeLa cell cytotoxicity, dose response, cytotoxicity control for MgcRacGAP inhibitor project (AID 624300); assay type: functional
[5] = StAR promoter reporter inhibition counter-screen, dose response, counter-screen for LRH-1 inverse agonist project, cell-based, luminescence, luciferase reporter (AID 651969); assay type: functional
Steroidogenic factor 1 = Steroidogenic factor 1 (Homo sapiens, UniProt Q13285); assay: Counterscreen for inverse agonists of the liver receptor homolog-1 (LRH-1; NR5A2): Luminescence-based cell-based high throughput dose response assay to identify inverse agonists of the Steroidogenic Factor 1 Nuclear Receptor (SF1; NR5A1).; assay type: functional
[6] = molecular target: Nuclear receptor subfamily 5 group A member 2 (Homo sapiens, UniProt O00482); assay type: functional, cell-based;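 note: HEK293T cells transfected with LRH-1 and a StAR promoter luciferase reporter; potency for inhibitors that lower LRH-1 driven reporter light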
[7] = molecular target: Heat shock protein HSP 90-alpha (Homo sapiens, UniProt P07900); assay type: functional, organism-based
[8] = molecular target: T3, E3 ubiquitin-protein ligase XIAP (Homo sapiens, UniProt P98170); assay: Counter Screen using XIAP-Bir3 for Chemical Antagonists of Bir1/2 domains of IAP-family anti-apoptotic proteins. [Related pubchem assays (depositor defined):AID1018, AID1449, AID1514, AID1638, AID1749, AID1750, AID488957, AID488963]
[9] = molecular target: T3, E3 ubiquitin-protein ligase XIAP; assay: XIAP antagonists, biochemical, IAP family, fluorescence polarization (AID 1018); assay type: functional
Leucine aminopeptidase = molecular target: T4, Leucine aminopeptidase (Plasmodium falciparum 3D7, UniProt Q8IL11); assay: P. falciparum M17LAP inhibitors, primary screen, biochemical, fluorogenic H-Leu-NHMec substrate, 1536-well (AID 1619); assay type: functional
T4 sequence (Q8IL11 whole entry): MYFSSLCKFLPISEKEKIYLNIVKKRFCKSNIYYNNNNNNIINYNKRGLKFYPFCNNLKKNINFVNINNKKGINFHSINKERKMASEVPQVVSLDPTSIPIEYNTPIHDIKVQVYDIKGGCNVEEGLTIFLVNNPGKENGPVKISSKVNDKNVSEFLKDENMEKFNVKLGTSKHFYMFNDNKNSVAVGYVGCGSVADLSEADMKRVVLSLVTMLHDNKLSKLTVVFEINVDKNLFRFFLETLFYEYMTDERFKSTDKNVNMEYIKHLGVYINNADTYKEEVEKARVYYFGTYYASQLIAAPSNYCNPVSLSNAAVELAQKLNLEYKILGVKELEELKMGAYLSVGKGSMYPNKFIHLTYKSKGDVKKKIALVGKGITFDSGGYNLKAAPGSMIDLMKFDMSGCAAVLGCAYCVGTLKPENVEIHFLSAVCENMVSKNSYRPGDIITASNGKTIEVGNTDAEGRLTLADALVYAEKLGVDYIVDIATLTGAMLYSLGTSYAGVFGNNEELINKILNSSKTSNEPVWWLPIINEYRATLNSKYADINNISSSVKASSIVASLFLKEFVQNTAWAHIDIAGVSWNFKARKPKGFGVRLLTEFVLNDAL

[10] = molecular target: T5, Calpain-2 catalytic subunit (Sus scrofa, UniProt P43367); assay: pig calpain II inhibitor potency, dose response, biochemical, fluorogenic peptide substrate (AID 1420); assay type: functional
T5 sequence (P43367 whole entry): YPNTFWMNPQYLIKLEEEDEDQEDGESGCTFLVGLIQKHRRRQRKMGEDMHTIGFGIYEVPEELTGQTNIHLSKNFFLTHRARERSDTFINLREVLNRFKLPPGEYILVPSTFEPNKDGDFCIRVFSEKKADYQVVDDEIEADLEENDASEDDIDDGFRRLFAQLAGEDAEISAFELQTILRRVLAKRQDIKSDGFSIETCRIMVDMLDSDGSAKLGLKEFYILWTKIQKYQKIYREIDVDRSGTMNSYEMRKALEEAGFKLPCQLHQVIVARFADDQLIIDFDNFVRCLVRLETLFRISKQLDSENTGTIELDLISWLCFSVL

Phospholipase A2 = Phospholipase A2 (Homo sapiens, UniProt P04054); assay type: functional;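 note: confirmatory dose-response counterscreen on phospholipase A2, testing hits that came from an ultra-high-throughput screen for ATG4B inhibitors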
[11] = HEp-2 cell cytotoxicity, dose response, cytotoxicity control for RSV inhibitor project, HTS (AID 2410); assay type: functional; settings: human respiratory syncytial virus
Cysteine protease ATG4B = molecular target: T6, Cysteine protease ATG4B (Homo sapiens, UniProt Q9Y4P1); assay type: functional;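 note: Fluorescence-based dose-response confirmation assay measuring inhibition of ATG4B activity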
T6 sequence (Q9Y4P1 whole entry): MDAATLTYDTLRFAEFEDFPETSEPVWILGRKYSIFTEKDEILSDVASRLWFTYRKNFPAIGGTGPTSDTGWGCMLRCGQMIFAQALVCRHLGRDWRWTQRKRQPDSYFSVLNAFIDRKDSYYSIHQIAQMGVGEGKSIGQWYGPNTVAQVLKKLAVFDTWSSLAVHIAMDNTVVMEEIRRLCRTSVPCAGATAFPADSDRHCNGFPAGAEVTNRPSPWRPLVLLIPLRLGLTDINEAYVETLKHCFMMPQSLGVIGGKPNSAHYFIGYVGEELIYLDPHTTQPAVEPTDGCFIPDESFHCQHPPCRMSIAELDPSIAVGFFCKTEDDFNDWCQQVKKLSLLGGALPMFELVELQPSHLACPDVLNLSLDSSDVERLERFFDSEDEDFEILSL

[12] = tested on: Streptococcus sp. 'group A'; assay: growth inhibition of control SK(-) GAS strain, dose response, counter-screen for streptokinase expression inhibitor project, luminescence, kanamycin, BacTiterGlo, confirmation (AID 1900); assay type: functional, organism-based
Streptococcus = assay: Group A Streptococcus viability loss, dose response, counter-screen for streptokinase expression inhibitor project, luminescence, BacTiterGlo (AID 1915); assay type: functional, organism-based;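 note: potency for reduction of bacterial viability or growth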
[13] = Fluorescence-based cell-based high throughput dose response assay for inhibitors of the interaction of nucleotide-binding oligomerization domain containing 2 (NOD2) and the receptor-interacting serine-threonine kinase 2 (RIPK2).; assay type: functional; settings: Homo sapiens
Large T antigen = Large T antigen (Simian virus 40, UniProt P03070); assay type: functional, Betapolyomavirus macacae;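 note: Confirmatory-stage PubChem screen for compounds that inhibit SV40 T antigen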
[14] = molecular target: T7, Microphthalmia-associated transcription factor (Homo sapiens, UniProt O75030); assay: TRPM1 promoter luciferase signal decrease, dose response, MITF inhibitor project, cell-based, SK-MEL-5, cherry-picked, set 3 (AID 493073); assay type: functional
T7 sequence (O75030 whole entry): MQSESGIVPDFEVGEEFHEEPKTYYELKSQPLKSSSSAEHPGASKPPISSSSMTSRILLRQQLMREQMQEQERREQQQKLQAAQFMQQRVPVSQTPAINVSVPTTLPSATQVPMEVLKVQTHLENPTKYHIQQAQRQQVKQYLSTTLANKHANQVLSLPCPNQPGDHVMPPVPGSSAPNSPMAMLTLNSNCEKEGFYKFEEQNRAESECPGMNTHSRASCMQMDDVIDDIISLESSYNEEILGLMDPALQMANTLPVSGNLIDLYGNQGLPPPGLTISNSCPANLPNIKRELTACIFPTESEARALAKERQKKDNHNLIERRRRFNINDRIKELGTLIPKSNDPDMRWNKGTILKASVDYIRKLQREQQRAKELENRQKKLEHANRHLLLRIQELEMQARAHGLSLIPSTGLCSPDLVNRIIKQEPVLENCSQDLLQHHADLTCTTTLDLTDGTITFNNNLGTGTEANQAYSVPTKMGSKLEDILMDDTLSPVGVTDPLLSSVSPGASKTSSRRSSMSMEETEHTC

[15] = molecular target: FAD-linked sulfhydryl oxidase ALR (Homo sapiens, UniProt P55789); assay: inhibitors of human ALR sulfhydryl oxidase, dose response, biochemical, H2O2 detection, luminescence, cherry-pick (AID 493248)
[16] = miR-122 activators in hepatoma reporter cells, dose response, cell-based, Huh7 psiCHECK-miR122, Renilla luciferase, cherry-picked (AID 651956); assay type: functional;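 note: huh7 hepatoma cells stably carrying a psiCHECK-2 miR-122 sensor plasmid; renilla luciferase signal reporting endogenous miR-122 activity after 48 h compound exposure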
[17] = HEK293T cytotoxicity, dose response, cytotoxicity control for miR-122 modulator project, cell-based, inhibitor set, cherry-pick, set 2 (AID 720697); assay type: functional

Sequence of Nuclear receptor subfamily 5 group A member 2 (O00482 whole entry): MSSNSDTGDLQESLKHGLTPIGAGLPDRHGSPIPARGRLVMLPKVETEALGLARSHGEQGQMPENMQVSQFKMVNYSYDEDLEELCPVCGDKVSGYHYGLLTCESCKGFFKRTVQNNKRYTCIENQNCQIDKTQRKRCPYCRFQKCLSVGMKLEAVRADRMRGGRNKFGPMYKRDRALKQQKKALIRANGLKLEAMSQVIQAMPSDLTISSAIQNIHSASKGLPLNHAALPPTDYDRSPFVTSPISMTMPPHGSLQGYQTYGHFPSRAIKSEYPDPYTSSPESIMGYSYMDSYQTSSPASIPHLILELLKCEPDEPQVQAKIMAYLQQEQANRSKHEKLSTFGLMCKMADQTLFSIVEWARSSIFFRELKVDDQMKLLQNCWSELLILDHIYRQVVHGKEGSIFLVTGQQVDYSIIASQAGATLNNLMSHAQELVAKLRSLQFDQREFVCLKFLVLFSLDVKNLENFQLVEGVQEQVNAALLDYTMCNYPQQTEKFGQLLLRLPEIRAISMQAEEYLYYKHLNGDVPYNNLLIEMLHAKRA
Sequence of Steroidogenic factor 1 (Q13285 whole entry): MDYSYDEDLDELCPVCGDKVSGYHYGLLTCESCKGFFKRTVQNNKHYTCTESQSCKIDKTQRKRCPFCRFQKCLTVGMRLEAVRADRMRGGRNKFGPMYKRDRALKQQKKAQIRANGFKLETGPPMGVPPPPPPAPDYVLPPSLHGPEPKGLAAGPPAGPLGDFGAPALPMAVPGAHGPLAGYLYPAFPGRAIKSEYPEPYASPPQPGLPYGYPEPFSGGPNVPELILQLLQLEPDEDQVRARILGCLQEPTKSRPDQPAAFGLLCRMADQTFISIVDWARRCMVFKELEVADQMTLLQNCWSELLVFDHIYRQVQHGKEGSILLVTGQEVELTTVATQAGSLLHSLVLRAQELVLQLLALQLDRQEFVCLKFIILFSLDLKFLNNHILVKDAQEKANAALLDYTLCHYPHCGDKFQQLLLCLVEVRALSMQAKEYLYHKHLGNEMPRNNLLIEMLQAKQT
T3 sequence (P98170 whole entry): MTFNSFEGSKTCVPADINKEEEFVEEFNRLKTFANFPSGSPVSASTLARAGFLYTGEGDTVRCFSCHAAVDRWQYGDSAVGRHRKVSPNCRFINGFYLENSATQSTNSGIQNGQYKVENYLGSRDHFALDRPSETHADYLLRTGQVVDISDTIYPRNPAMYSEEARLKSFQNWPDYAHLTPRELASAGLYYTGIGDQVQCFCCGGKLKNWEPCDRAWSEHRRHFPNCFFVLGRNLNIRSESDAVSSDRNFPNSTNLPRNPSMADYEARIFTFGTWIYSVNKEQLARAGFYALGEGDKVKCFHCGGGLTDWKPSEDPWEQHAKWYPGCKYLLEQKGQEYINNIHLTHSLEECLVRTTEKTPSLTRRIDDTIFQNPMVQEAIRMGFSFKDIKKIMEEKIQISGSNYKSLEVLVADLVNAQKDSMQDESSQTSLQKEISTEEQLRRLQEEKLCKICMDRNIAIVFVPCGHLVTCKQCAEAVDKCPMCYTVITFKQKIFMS
Sequence of Phospholipase A2 (P04054 whole entry): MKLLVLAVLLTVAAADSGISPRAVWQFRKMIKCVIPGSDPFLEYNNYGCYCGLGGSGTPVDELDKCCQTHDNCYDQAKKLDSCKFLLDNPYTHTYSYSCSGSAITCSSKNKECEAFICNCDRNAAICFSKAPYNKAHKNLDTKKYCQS
Sequence of FAD-linked sulfhydryl oxidase ALR (P55789 whole entry): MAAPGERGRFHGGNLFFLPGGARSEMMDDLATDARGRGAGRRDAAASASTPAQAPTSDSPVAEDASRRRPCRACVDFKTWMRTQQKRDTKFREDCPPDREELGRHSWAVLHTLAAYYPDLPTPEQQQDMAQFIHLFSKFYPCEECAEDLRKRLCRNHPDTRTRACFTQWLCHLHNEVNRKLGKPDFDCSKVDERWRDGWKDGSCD
Sequence of Large T antigen (P03070 whole entry): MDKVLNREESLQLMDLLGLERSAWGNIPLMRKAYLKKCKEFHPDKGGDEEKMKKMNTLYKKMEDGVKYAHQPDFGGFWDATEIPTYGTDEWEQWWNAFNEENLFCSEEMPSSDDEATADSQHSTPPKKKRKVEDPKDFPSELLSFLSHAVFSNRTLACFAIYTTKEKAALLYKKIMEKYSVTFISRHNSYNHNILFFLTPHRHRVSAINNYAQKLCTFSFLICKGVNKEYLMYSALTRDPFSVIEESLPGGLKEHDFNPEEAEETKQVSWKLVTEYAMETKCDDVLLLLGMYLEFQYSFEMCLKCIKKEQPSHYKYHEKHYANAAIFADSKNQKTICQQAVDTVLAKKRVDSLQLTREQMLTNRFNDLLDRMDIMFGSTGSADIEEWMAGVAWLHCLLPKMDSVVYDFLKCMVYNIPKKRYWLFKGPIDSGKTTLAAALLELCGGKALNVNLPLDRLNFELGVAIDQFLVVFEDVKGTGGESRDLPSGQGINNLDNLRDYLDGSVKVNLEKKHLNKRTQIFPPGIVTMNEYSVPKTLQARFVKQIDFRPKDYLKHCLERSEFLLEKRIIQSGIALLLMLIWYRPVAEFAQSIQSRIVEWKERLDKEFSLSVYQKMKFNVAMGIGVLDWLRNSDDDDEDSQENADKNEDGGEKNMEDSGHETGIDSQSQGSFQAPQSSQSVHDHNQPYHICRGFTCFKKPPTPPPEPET

CCOC(=O)c1[nH]c2ccc(OC)cc2c1NS(=O)(=O)c1ccc(Cl)s1
IC50 (Galanin receptor type 3): 1.45 µM (active) | EC50 (cells): > 29.9 µM (inactive)

COc1cccc(NC(=O)c2cc(S(=O)(=O)N3CCc4ccccc43)cn2C)c1
EC50 [1]: > 53 µM (inactive) | IC50 [2]: > 20 µM (inactive) | IC50 [3]: < 0.368 µM (active)

N=C(NOC(=O)N1c2ccccc2Sc2ccccc21)c1ccc(Br)cc1
CC50 [4]: 63.6 µM (active)

CCc1cc(=O)oc2c(C)c(OCC(=O)NCCCN3CCCC3=O)ccc12
IC50 [5]: 35.9 µM (inactive) | IC50 (Steroidogenic factor 1): 35.9 µM (inactive) | IC50 [6]: 35.9 µM (inactive)

CCOc1ccccc1N1CCN(C(=O)c2cccc(-c3ccc(O)cc3)c2)CC1
AC50 [7]: 3.3 µM (active) | IC50 [8]: > 100 µM (inactive) | IC50 [9]: > 100 µM (not active)

CCc1c(C)nc(SCC(=O)Nc2ccc3c(c2)OCCO3)[nH]c1=O
IC50 (Leucine aminopeptidase): 10.2 µM (active) | IC50 (Steroidogenic factor 1): 0.599 µM (active) | IC50 [6]: 1.54 µM (active)

CCc1c(C)nc(SCC(=O)Nc2ccc3c(c2)OCCO3)nc1O
IC50 [5]: 35.9 µM (inactive)

CC(C)(C)c1nc(SCC(=O)c2ccccc2)c2ccccc2n1
IC50 [10]: > 50 µM (not active) | IC50 (Phospholipase A2): 10.1 µM (active) | CC50 [11]: 39.5 µM (active) | IC50 (Cysteine protease ATG4B): 15.8 µM (active)

Cn1c(C(=O)NN)cc2cc(Oc3ccccc3)ccc21
IC50 (Galanin receptor type 3): 8.17 µM (active) | EC50 (cells): > 29.9 µM (inactive)

Cc1ccc(-c2nn3c(C)nnc3s2)cc1NC(=O)c1ccco1
IC50 [5]: 35.9 µM (inactive) | IC50 (Steroidogenic factor 1): 8.56 µM (active) | IC50 [6]: 18.3 µM (inactive)

O=[N+]([O-])c1ccc(-c2cc(O)n3nc(-c4ccc(F)cc4)cc3n2)cc1
EC50 [1]: > 53 µM (inactive) | EC50 [12]: 4.2 µM (active) | IC50 [2]: 12.9 µM (active) | IC50 [3]: 27.4 µM (active) | EC50 (Streptococcus): 6.44 µM (active)

O=[N+]([O-])/C=C\c1ccc(N2CCOCC2)cc1
IC50 [13]: 4.32 µM (active) | IC50 (Large T antigen): > 100 µM (active) | AC50 [14]: 13.6 µM (active)

COc1ccccc1-c1sc2cc3c(cc2c1-c1ccc(O)cc1)OCO3
AC50 [7]: 8.22 µM (active)

O=C(Nc1ccc(Oc2ccccc2)cc1)c1csc(COCCO)n1
IC50 (Galanin receptor type 3): 1.39 µM (active) | EC50 (cells): > 29.9 µM (inactive)

Cc1nc2c(C)cccc2cc1C(=O)N/N=C/c1ccc(O)cc1
EC50 [1]: > 53 µM (inactive) | IC50 [2]: > 20 µM (inactive) | IC50 [3]: 33.1 µM (active) | AC50 [15]: 0.025 µM (active)

CN(C)c1ncnc2c1ncn2C1OC(CO)C(O)C1O (configuration not stated)
AC50 [16]: 25.4 µM (active) | AC50 [17]: 8.52 µM (active)
